# Data published in patent US20210393645A1, “TREATMENT FOR PROGRESSIVE MULTIPLE SCLEROSIS” (UTI LIMITED PARTNERSHIP, priority 2016, published 2021).
# “Also recorded” adds a separate entry of the source. Counter-ions that a name gives are not always drawn. Like-named read-outs stand apart in the source and are kept apart here.
# Legend:
# [1] = system: T-cells; test: Proliferation of T-lymphocytes (3H-thymidine) in anti-CD3/anti-CD28 activated splenocytes; type: cell-based, mouse; conditions: for inhibition at 10 µM: Mus musculus, T-cell, 72 h, read-out: mean reduction of 3H-thymidine incorporation (T-cell proliferation); for toxic effects in the T-cell proliferation test: data not shown
# Protocol: A previously published protocol was used for isolating and activating T-cells (Keough et al., Nature Comm 7:11312, 2016). Spleens from female C57B16 mice were harvested and after mechanical dissociation the cell suspension was passed through a 70 μm cell strainer and separated by Ficoll gradient (1800 RPM, 30 min). Splenocytes were plated (2.5×10^5 cells in 100 μl/well) in anti-CD3 antibody coated 96-well plates (1,000 ng m1^−1 plate-bound anti-CD3 and 1,000 ng m1^−1 anti-CD28 suspended in media) to activate T-cells. Directly before plating, wells were treated with respective drugs in a final concentration of 10 μM. Cells were cultured in RPMI 1640 medium, supplemented with 10% FBS, 1 μM sodium pyruvate, 2 mM L-alanyl-L-glutamine, 1% penicillin/streptomycin, 1% HEPES and 0.05 mM 2-mercaptoethanol (all supplements were from Invitrogen). After 48 h, ^3H-thymidine was added in a concentration of 1 μCi per well, and cells were harvested after 24 h on filter mats. Mats were then evaluated for radioactivity (counts per minute) using a liquid scintillation counter.
# [2] = system: human neurons; test: Live cell imaging of propidium iodide positive neurons challenged with FeSO4; type: cell-based; conditions: FeSO4 50 μM, pre-treatment 1 h
# Protocol: Neurons were prepared as described above. Directly after the addition of FeSO4 to healthy neurons, the live cell-permeant Hoechst 33342 (1:2 diluted in AIM-V medium, nuclear blue; ThermoFisher Scientific, Grand Island, NY, USA) and the live cell-impermeable propinium iodide (PI, 1:20 diluted in AIM-V medium) were added in a volume of 20 μI (Sigma-Aldrich). In compromised cells, PI could now diffuse across the plasma membrane. Live cell imaging was performed using the automated ImageXpress® imaging system under controlled environmental conditions (37° C. and 5% CO2). Images were taken from 9 sites per well at baseline and then every 30 min for 12h. After export with MetaXpress®, videos were edited with ImageJ (NIH) in a uniform manner. Nuclei were pseudo colored in cyan, PI-positive cells in red.
# Live cell imaging over 12 h supported the neuroprotective effects of drugs. We selected indapamide and desipramine for live imaging studies.
# [3] = system: human neurons; test: Iron (FeSO4) mediated neurotoxicity screening, MAP-2 positive neurons counted; type: cell-based; conditions: for viability at 10 µM: Homo sapiens, Neuron, read-out: Drug % control (mean): number of neurons normalized to untreated control
# Method in brief: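 Fetal human neurons (15-20 wk), plated with cytosine arabinoside, were pre-incubated 1 h with compounds (10 mM DMSO stocks) before FeSO4 at 25-50 μM final. Cells fixed a day later; MAP-2 immunostaining plus Hoechst nuclei imaged automatically, sites per well averaged; quadruplicates.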
# [4] = system: human neurons; test: Mitochondrial damage to neurons induced by rotenone; type: cell-based; conditions: rotenone 10 μM, drug 10 μM
# Protocol: Human neurons were isolated from brain tissues of therapeutically aborted 15-20 week old fetuses, in accordance with ethics approval of the University of Calgary ethics committee, after written informed consent of the pregnant donors. Neurons were isolated as previously described (Vecil et al., 2000) brain specimens were washed in phosphate buffered saline (PBS) to remove blood, followed by removal of meninges. […] Thereafter, the digestion was stopped by addition of 4 ml fetal calf serum (FCS). The solution was filtered through a 132 μm filter and centrifuged (three times, 1,200 rpm, 10 min). Cells were cultured in feeding medium of minimal essential medium (MEM) supplemented with 10% fetal bovine serum (FBS), 1 μM sodium pyruvate, 10 μM glutamine, 1× non-essential amino acids, 0.1% dextrose and 1% penicillin/streptomycin (all culture supplements from Invitrogen, Burlington, Canada). […] For experiments, the neuron-enriched cultures were retrypsinized and cells were plated in poly-L-ornithine pre-coated 96-well plates at a density of 100,000 cells/well in 100 μl of the complete medium supplemented with cytosine arabinoside. […] All conditions were performed in quadruplicates. A day later cells were fixed using 4% paraformaldehyde (PFA) and stored in PBS in 4° C.
# The iron stock solution was prepared using 27.8 mg iron(II) sulfate heptahydrate (FeSO4) (Sigma-Aldrich, Oakville, Canada), 10 μl of 17.8M sulfuric acid and 10 ml deionized distilled water. After filtering with a 0.2 μm filter, FeSO4 was added to cells in a final concentration of 25-50 μM in a volume of 50 μl medium to the cells. Rotenone was dissolved in dimethyl sulfoxide (DMSO) and used in a final concentration of 10 μM.
# [5] = Hydroxyl radical antioxidant capacity (HORAC) assay; type: biochemical; conditions: vs 12.5 μM gallic acid (=1), 60 min
# Protocol: In this assay, hydroxyl radicals generated by a Co(II)-mediated Fenton-like reaction oxidize fluorescein causing loss of fluorescence (Ou et al., J Argricultural Food Chemistry 50:2772-2777, 2002). The presence of an anti-oxidant reduces the loss of fluorescence and this can be monitored every 5 min over a period of 60 min with a Spectra Max Gemini XS plate reader (Molecular Devices, Sunnyvale, Calif., USA) and the software SoftMax Pro version 5. For monitoring fluorescence, we used an excitation wavelength of λ=485 nm and an emission wavelength of λ=520 nm.
# The biochemical cell free hydroxyl radical antioxidant capacity (HORAC) assay investigates the prevention of hydroxyl radical mediated oxidation of to fluorescein in comparison to the strong anti-oxidant gallic acid. The generation of hydroxyl radicals by a cobalt-driven Fenton-like reaction oxidizes fluorescein with progressive loss of fluorescence. The presence of an anti-oxidant reduces the loss of fluorescence over time.
# We compared the area under the curve of test compounds to that elicited by gallic acid to obtain the gallic acid equivalent (GAE).
# [6] = system: mice; test: Lysolecithin demyelination of the spinal cord in aging 8-10 months old mice; type: in vivo, mouse; conditions: 20 mg/kg IP immediately after lysolecithin and once per day for 2 days; day 3
# From the text: Active demyelinating lesions can be found in MS specimens of all ages sampled, including late in life. Indeed, age has been identified to be a factor in the dreaded conversion from relapsing-remitting into secondary progressive MS. Contributing causes for aging-associated worsening in MS that drives progression include the steady loss of axons with longevity of disease, or the deficient repair of myelin in older compared to younger patients. We tested the hypothesis that the same demyelinating injury is more devastating to axons and myelin as the individual ages.
# We thus treated aging 8-10 months old mice with intraperitoneal indapamide (20 mg/kg) immediately after lysolecithin demyelination, and once per day at 20 mg/kg for the next 2 days. Spinal cord tissues were taken for histology.
# [7] = system: microglia; conditions: shown previously; cited from earlier work
# [8] = 1 h after the last of 16 daily clomipramine injections, 25 mg/kg IP
# Protocol: One h after the last administration of clomipramine animals were anesthetized with ketamine/xylazine, blood was taken by an intracardiac puncture for serum, and animals were then subjected to PBS-perfusion. […] Cervical and lumbar cords were snap frozen.
# For preparation of samples, 100 pl of ice cold methanol were added to 100 pl of serum in each sample after addition of the internal standard maprotiline. The tubes were vortexed and left on ice for 10 min followed by centrifugation at 10,000×g for 4 min. An equal amount of distilled water was added to each supernatant. Spinal cord samples were each homogenized in 10 volumes of ice-cold 80% methanol. Twenty pl of o-phosphoric acid were added to all samples after addition of internal standard (maprotiline). The tubes were vortexed and left on ice for 10 min, followed by centrifugation at 10,000×g for 4 min and an equal volume of distilled water was added to each supernatant. […]
# Calibration curves consisting of varying amounts of authentic clomipramine and N-desmethylclomipramine and the same fixed amount of maprotiline as added to the samples being analyzed were run in parallel through the procedure described above and the ratios of clomipramine and N-desmethylclomipramine to maprotiline were used to determine the amount of drug and metabolite in the serum and spinal cord samples.
# [9] = drug 10 μM, vs activated splenocytes
# [10] = drug 10 μM 1 h before FeSO4 25 or 50 μM, MAP-2 neurons after 24 h
Compound,"inhibition at 10 µM [1, 9] [%]","viability at 10 µM [3, 10] [%]",neurotoxicity by rotenone (mitochondrial damage) [4],other results
CNCCCN1c2ccccc2CCc2ccccc21 [DESIPRAMINE HYDROCHLORIDE],92.2,84.4,active against damage to the mitochondrial respiratory chain,number of PI-positive neurons in response to FeSO4 over 12 h [2]: significantly attenuated; protection from FeSO4-mediated neurotoxicity (in words) [3]: strong protection; mean HORAC-GAE (gallic acid equivalents) [5]: -5.00
TRIMEPRAZINE TARTRATE,–,–,–,"mean reduction of 3H-thymidine incorporation (T-cell proliferation) [1, 9]: 43.3%; Drug % control (mean): number of neurons normalized to untreated control [3, 10]: 73.31%"
CC12CC3CC(C)(C1)CC(N)(C3)C2 [MEMANTINE HYDROCHLORIDE],–,53.2,–,"increase of T-cell proliferation [1, 9]: 17.5%"
N#Cc1ccc2c(c1)N(CCCN1CCC(O)CC1)c1ccccc1S2 [PERICIAZINE],28,82,reduced neurotoxicity,"protection from FeSO4-mediated neurotoxicity (in words) ([3]; drug 10 μM, human neurons): strong protection"
CC1Cc2ccccc2N1NC(=O)c1ccc(Cl)c(S(N)(=O)=O)c1 (stereo not shown) [INDAPAMIDE],–,126,reduced neurotoxicity; also recorded: active against damage to the mitochondrial respiratory chain,"effect on T-lymphocyte proliferation (in words) [1]: no effect on T-lymphocyte proliferation; number of PI-positive neurons in response to FeSO4 over 12 h [2]: significantly attenuated; protection from FeSO4-mediated neurotoxicity (in words) ([3]; drug 10 μM, human neurons): strong neuroprotective effects against iron toxicity; axonal loss [6]: less axonal loss; lesional malondialdehyde level [6]: reduced lesional malondialdehyde; volume of demyelination [6]: smaller volume of demyelination; mean HORAC-GAE (gallic acid equivalents) [5]: 4.1"
CN(C)CCCN1c2ccccc2CCc2ccccc21 [IMIPRAMINE HYDROCHLORIDE],66.4,106,–,–
OC(c1cc(C(F)(F)F)nc2c(C(F)(F)F)cccc12)C1CCCCN1 (stereo not shown) [MEFLOQUINE],62.3,47,–,–
OCCN(CCO)c1nc(N2CCCCC2)c2nc(N(CCO)CCO)nc(N3CCCCC3)c2n1 [DIPYRIDAMOLE],89.3,165,–,–
CC(CN(C)C)CN1c2ccccc2CCc2ccccc21 (stereo not shown) [TRIMIPRAMINE MALEATE],54,88.6,reduced neurotoxicity,mean HORAC-GAE (gallic acid equivalents) [5]: 4.2
CC(CCc1ccccc1)NCC(O)c1ccc(O)c(C(N)=O)c1 (stereo not shown) [LABETALOL HYDROCHLORIDE],26.8,54.4,–,neurotoxicity by rotenone (mitochondrial damage) ([4]; HYDROCHLORIDE): reduced neurotoxicity; also recorded: active against damage to the mitochondrial respiratory chain
N[C@@H](C(=O)N[C@@H]1C(=O)N2C(C(=O)O)=C(Cl)CS[C@H]12)c1ccccc1 [CEFACLOR],23,89.9,–,–
CN(C)CCC=C1c2ccccc2COc2ccccc21 [DOXEPIN HYDROCHLORIDE],85.3,76.9,–,microglial activation reduced to [7]: 46%
CC(CN1c2ccccc2Sc2ccccc21)N(C)C (stereo not shown) [PROMETHAZINE HYDROCHLORIDE],74.6,105,reduced neurotoxicity,–
CN(C)CCCN1c2ccccc2Sc2ccc(Cl)cc21 [CHLORPROMAZINE],99.4,98.8,–,toxic effects in the T-cell proliferation test ([1]; drug 10 μM): toxic effects
CNCCCN1c2ccccc2CCc2ccc(Cl)cc21 [desmethylclomipramine],–,–,–,mean serum concentration [8]: 101 nM; mean spinal cord level [8]: 1.5 µM
O=C1c2c(O)ccc(O)c2C(=O)c2c(NCCNCCO)ccc(NCCNCCO)c21 [MITOXANTHRONE HYDROCHLORIDE],99.7,52.5,–,toxic effects in the T-cell proliferation test ([1]; drug 10 μM): toxic effects
